Laboratory results: US20230226207A1, “Camptothecin Drug Having High-Stability Hydrophilic Connecting Unit And Conjugate Thereof” (SICHUAN BAILI PHARM CO., LTD, priority 2020, published 2023)

Legend:
[1] = test system: N87 (human gastric cancer cells); experiment: In vitro proliferation inhibition of N87 tumor cells (MTS); type: cell-based; details: 120 h, 5 days
Experimental: (§1) 1) Experimental Materials • Cells: from the cell bank of the Chinese Academy of Sciences; • Tumor cell culture medium: Gibco; • FBS: BIOWEST;
(§2) 2) Preparation of Medium • Growth medium (with 10% FBS, Penicillin/streptomycin (100 U/mL); • Detection medium (with 1% FBS, Penicillin/streptomycin (100 U/mL);
(§3) Turn on the UV lamp in the biological safety cabinet 30 minutes in advance, and ventilate for 3 minutes. Put the growth medium, detection medium, D-PBS and pancreatin into a 37° C. constant temperature water bath to preheat, then disinfect the surface with alcohol and put it in a biological safety cabinet. Select cells with a confluence of ˜80% (logarithmic growth phase), put them in a biological safety cabinet, aspirate the old medium, rinse with D-PBS, aspirate and discard, digest with trypsin for 2 to 3 minutes, and then add to growth Stop trypsin in the medium, and centrifuge at 500×g for 5 min. Aspirate the centrifugal supernatant, mix well with 4 mL detection medium, take 100 uL for counting (take out 50 uL cell fluid, add 50 μL 0.4% Trypan Blue Stain and mix well, and count after mixing). Plate the plate according to the number of cells set before, and plate 80 uL/well in a 96-well plate. Only add 80 uL detection medium to wells E11, F11, and G11, and add 200 uL DPBS to the edge holes to seal the edges. […]
(§4) Take out the MTS reagent after the test sample is exposed for 5 days. […] After the reaction, the 96-well plate was taken out, the OD490 nm absorbance value was detected in the microplate reader, and the data was recorded, sorted, and stored.

[2] = test system: SK-BR-3 (human breast adenocarcinoma cells); experiment: In vitro proliferation inhibition of SK-BR-3 tumor cells (MTS); type: cell-based; details: 120 h, SK-BR-3 cells, 5 days
Experimental: as §1, §2, §3, §4

Structure (SMILES)	IC50 [1] [nM]	IC50 [2] [nM]
CC[C@@]1(O)C(=O)OCc2c1cc1n(c2=O)Cc2c-1nc1cc(F)c(C)c3c1c2[C@@H](NC(=O)[C@H](O)C(F)(F)F)CC3 [d6]	2.15	239
CC[C@@]1(O)C(=O)OCc2c1cc1n(c2=O)Cc2c-1nc1cc(F)c(C)c3c1c2[C@@H](NC(=O)[C@H](C)O)CC3 [d3]	8.03	183
CC[C@@]1(O)C(=O)OCc2c1cc1n(c2=O)Cc2c-1nc1cc(F)c(C)c3c1c2[C@@H](NC(=O)CO)CC3 [d1]	13.3	104
